Reference: patent publication US10759740B2, “Antibacterial agents” (Rutgers, The State University of New Jersey, priority 2016, dated 2020)

Columns and labels:
biofilms of G. vaginalis = test: Checkerboard assay, biofilm cells; type: cell-based, Gardnerella vaginalis; conditions: for MBC-B of CAm in combination with metronidazole: 24 h
Protocol: For biofilm formation, the overnight culture of G. vaginalis was diluted to approximately 10^7 CFU/ml and 200 μl was transferred into a 96-well tissue culture microplate and incubated anaerobically at 37° C. for 24-36 h. Following biofilm formation and removal of non-adherent cells by washing the biofilm twice with BHIG, each antimicrobial was diluted twofold separately with BHIG broth into two 96-white deep-well microplates. From each dilution of antimicrobial B, 125 μL was added horizontally over 125 μL of antimicrobial A (see FIG. 1 of Algburi et al., 2015. Path Dis 73(5)). From each combination, 200 μL samples were added to the biofilm in sequence, and the microplate was incubated for 24 h at 37° C. under anaerobic conditions. The spot plate method was utilized for counting the number of CFU/ml and evaluating the bactericidal activity (MBC-B) of each antimicrobial combination against biofilm-associated G. vaginalis. Isobolograms were used to analyze the nature of antimicrobial interaction, which is classified as synergistic, antagonistic or additive activity against the planktonic and biofilm cells.
Isobolograms were used to compare the MIC and MBC-B values of each antimicrobial alone with its MIC and MBC-B values in combination with other antimicrobials. The point on the axis (X) refers to MIC or MBC-B values of the first antimicrobial with the coordinates (0, x), and the point on the axis (Y) represents the MIC or MBC-B values of the second antimicrobial with the coordinates (y, 0) when they used alone. The two MIC or MBCs-B values are connected by a dashed line (Turovskiy Y, Chikindas M L. 2011 Probiotics Antimicrob Proteins 3:144-149). The MICs or MBCs-B of each antimicrobial combination are plotted as dots on the graph. Results are expressed according to the locations of these dots from the line that connects MICs or MBCs-B of the first and second antimicrobials. When MICs or MBCs-B values are located under the line, the two combining antimicrobials are synergized, but antagonized against the tested microorganism when these dots of interaction are above. An additive effect is observed when these dots are located on the line.

[1] = tested on: Human foreskin fibroblast (HFF) cells; type: cell-based; conditions: for IC50: Table 2 of Example 1, cytotoxicity IC50 of CAms
Protocol: HFFs were cultured in DMEM supplemented with 10% fetal bovine serum, 1% penicillin/streptomycin and plated at a concentration of 10,000 cells/well in 96-well plate. Plates were incubated at 37° C. and 5% CO2 for 24 h to allow cell attachment prior to use.
CAMs were tested for cytotoxicity against HFFs using a tetrazolium-based colorimetric assay (MTT). CAMs were first dissolved in ddH2O and then diluted in cell medium (DMEM supplemented with 1% penicillin/streptomycin) to reach concentrations of 15.6, 3.9, and 0.95 μg/mL. 100 μL cell media containing CAMs were then added to allocated wells in a 96-well plate. Cells treated with only 1% Triton X-100 and cell medium were used as positive and negative controls, respectively. After 24 h incubation, the medium was removed and replaced with fresh medium. 20 μL of MTT reagent (12 mM in PBS) was then added to each well and further incubated for 4 h at 37° C. Formazan crystals were subsequently dissolved in 100 μL acidified SDS solution at 37° C. for 4 h. […] The following is used to calculate the percent of cell viability of HFFs: […]

[2] = tested on: Salmonella enterica serovar typhimurium; test: Broth microdilution assay (MIC); type: cell-based; conditions: BHI broth, 37° C., 24 h, no visible growth
Protocol: From the frozen stock (−80° C.), bacteria were inoculated into brain-hear infusion (BHI) agar (Becton Dickinson, Franklin Lakes, N.J.) and propagated under aerobic conditions at 37° C. for 24 h. After the incubation, one colony of each bacterial strain was transferred to BHI broth (Becton Dickinson, Franklin Lakes, N.J.) and sub-cultured at least twice into BHI before being used in experiments.
The minimal inhibitory concentration (MIC) of CAms were identified using a broth microdilution assay modified from previous studies. Briefly, the stock solutions of CAMs were first prepared by dissolving in double-distilled water (ddH2O) and then diluted in BHI broth at pre-determined concentrations. Further serial 2-fold dilutions were performed in a 96-well microplate (Becton Dickinson, Franklin Lakes, N.J.) with BHI broth. The inoculum concentration was adjusted to 5×10^6 CFU/mL with ultraviolet-visible (UV-vis) spectroscopy at 600 nm. An equal volume (100 μL) of bacterial suspension was added to each microplate well with a final volume of 200 μL. Plates were incubated at 37° C. for 24 h under aerobic conditions. The lowest CAm concentration that yielded no visible growth was recorded as the MIC. Cetyltrimethylammonium bromide (CTAB), a cationic amphiphile, served as a positive control that could mimic the proposed bactericidal mechanism of the newly synthesized tartaric acid-based compounds.
CAms were evaluated against five selected pathogenic microorganisms, including Gram-positive bacteria (i.e., S. aureus and L. monocytogenes) and Gram-negative bacteria (i.e., E. coli, S. typhimurium, and P. aeruginosa), using a turbidity-based microdilution method. MICs were taken as the lowest concentrations that inhibited the visible bacterial growth.

L. rhamnosus biofilm = test: Minimum biofilm bactericidal concentration (MBC-B); type: cell-based, Lactobacillus rhamnosus; conditions: pre-formed biofilm, ≥3 log reduction
Protocol: G. vaginalis ATCC 14019 strain was grown overnight in Brain Heart Infusion broth (Difco, Sparks, Md.) supplemented with 3% horse serum (sBHI) (JRH Biosciences, KS), while BHI supplemented with 1% glucose (BHIG) was used for biofilm formation assays. Each experiment using G. vaginalis was performed anaerobically (10% hydrogen, 5% carbon dioxide, and 85% nitrogen) within anaerobic glove boxes (Coy Laboratory Products, Inc., Grass Lake, Mich., USA). Three species of vaginal Lactobacillus were used in this study to evaluate the possible harmful effects of CAms on beneficial bacteria: Lactobacillus plantarum ATCC 39268, Lactobacillus rhamnosus 160 (provided by Dr. Aroutcheva, Rush University Medical Center) and Lactobacillus gasseri ATCC 33323; all were grown for 18-24 h in DeMan, Rogosa and Sharpe broth (MRS Difco B D, Franklin Lakes, N.J., USA) under aerobic conditions at 37° C. For lactobacilli biofilm formation, MRS broth supplemented with 1% glucose and 2% sucrose (Fisher Scientific, Waltham, Mass., USA) was utilized.
This assay was performed according to Algburi et al. (Algburi et al., 2015. Path Dis 73(5)) with minor modifications: the overnight-grown G. vaginalis was diluted to approximately 10^7 CFU/ml. For the biofilm formation assay, aliquots of 200 μl were added into a 96-well tissue culture microplate, sealed by amplification tape (Nalge Nunc International, Rochester, N.Y., USA) and incubated for 24-36 h at 37° C. After incubation, the planktonic cells were removed by gently washing the biofilm twice with 200 μl of fresh broth. The biofilm was then treated with 200 μl of a predetermined concentration of the tested compound. The microplate was incubated for 24 h at 37° C. under anaerobic conditions. After incubation, the antimicrobials (supernatant) were discarded and the biofilm was washed twice with fresh BHIG broth. The biofilm was then disrupted by vigorous pipetting, in order to determine the number of biofilm-associated cells using the spot plate method.

Compound | MBC-B of CAm when used alone (biofilms of G. vaginalis) | MBC-B of CAm in combination with metronidazole (biofilms of G. vaginalis) | cytotoxicity to human fibroblasts (MTT cell viability) [1] | IC50 [1] | MIC S. typhimurium (G−) [2] | MBC-B L. rhamnosus (L. rhamnosus biofilm)
CCCCCCCCCCOC(C(=O)NCCN)C(OCCCCCCCCCC)C(=O)NCCN.Cl.Cl (centres unmarked) [5b] | 340 µM | 25.7 µM | did not produce pronounced cytotoxicity | 5.6 µg/mL | 3.9 µg/mL | >850 µM
CCCCCCCC(=O)OC(C(=O)NCCN)C(OC(=O)CCCCCCC)C(=O)NCCN.Cl.Cl (centres unmarked) [8a] | 92.7 µM | 26.9 µM | – | 55.6 µg/mL | 62.5 µg/mL | >890 µM
CCCCCCCCCC(=O)OC(C(=O)NCCN)C(OC(=O)CCCCCCCCC)C(=O)NCCN.Cl.Cl (centres unmarked) [8b] | 67.7 µM | 6.3 µM | did not produce pronounced cytotoxicity | 13.9 µg/mL | 3.9 µg/mL | >810 µM
